Target: AMPK
Assay: AMPK activation, enzyme-linked immunosorbent assay
Format: biochemical
Settings: EC50 for AMPK activation, ELISA
Outline: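 Activation by each compound is measured using a conventional commercial immunoassay kit.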

| SMILES | EC50 |
| --- | --- |
| O=C(NC1CCN(Cc2ccc(F)cc2)CC1)c1ccc(C(=O)N2CCN(Cc3ccc(F)cc3)CC2)nc1 [Compound 328, 6-(4-(4-fluorobenzyl)piperazine-1-carbonyl)-N-(1-(4-fluorobenzyl)piperidin-4-yl)nicotinamide] | < 500 nM |
| COc1ccc(C(=O)C2CCN(C(=O)c3cnc(C(=O)NC4CCN(Cc5ccc(C#N)cc5)CC4)cn3)CC2)cc1 [Compound 211, N-(1-(4-cyanobenzyl)piperidin-4-yl)-5-(4-(4-methoxybenzoyl)piperidine-1-carbonyl)pyrazine-2-carboxamide] | < 500 nM |
| N#Cc1ccc(CN2CCC(NC(=O)c3cnc(C(=O)N4CCC(Oc5ccc(C(F)(F)F)cc5)CC4)cn3)CC2)cc1 [Compound 212, N-(1-(4-cyanobenzyl)piperidin-4-yl)-5-(4-(4-(trifluoromethyl)phenoxy)piperidine-1-carbonyl)pyrazine-2-carboxamide] | < 500 nM |
| N#Cc1ccc(CN2CCC(NC(=O)c3ccc(C(=O)N4CCN(c5ccc(C(=O)C6CC6)cc5)CC4)cn3)CC2)cc1 [Compound 258, N-(1-(4-cyanobenzyl)piperidin-4-yl)-5-(4-(4-(cyclopropanecarbonyl)phenyl)piperazine-1-carbonyl)picolinamide] | < 500 nM |
| COc1ccc(C(=O)C2CCN(C(=O)c3ccc(C(=O)NC4CCN(Cc5ccc(F)cc5)CC4)nc3)CC2)cc1 [Compound 178, N-(1-(4-fluorobenzyl)piperidin-4-yl)-5-(4-(4-methoxybenzoyl)piperidine-1-carbonyl)picolinamide] | < 500 nM |
| CC(C)N1CCN(C(=O)c2ccc(C(=O)NC3CCN(Cc4ccc(C#N)cc4)CC3)nc2)CC1 [Compound 84, N-(1-(4-cyanobenzyl)piperidin-4-yl)-5-(4-isopropylpiperazine-1-carbonyl)picolinamide] | 1000 to 5000 nM |
| COc1ccc(C(=O)C2CCN(c3ccc(C(=O)NC4CCN(Cc5ccc(C#N)cc5)CC4)nc3)CC2)cc1 [Compound 302, N-(1-(4-cyanobenzyl)piperidin-4-yl)-5-(4-(4-methoxybenzoyl)piperidin-1-yl)picolinamide] | < 500 nM |
| N#Cc1ccc(CN2CCC(NC(=O)c3ccc(C(=O)NC4CCN(Cc5ccc(C#N)cc5)CC4)nn3)CC2)cc1 [Compound 386, N3,N6-bis(1-(4-cyanobenzyl)piperidin-4-yl)pyridazine-3,6-dicarboxamide] | > 10000 nM |
| O=C(NC1CCN(Cc2ccc(OC(F)(F)F)cc2)CC1)c1ccc(C(=O)N2CCC(C(=O)c3ccc(N4CCCC4)cc3)CC2)nc1 [Compound 440, 6-(4-(4-(pyrrolidin-1-yl)benzoyl)piperidine-1-carbonyl)-N-(1-(4-(trifluoromethoxy)benzyl)piperidin-4-yl)nicotinamide] | < 500 nM |
| O=C(c1ccc(Nc2ccc(Oc3ccccc3)cc2)nc1)N1CCN(Cc2ccc(F)cc2)CC1 [Compound 34, (4-(4-fluorobenzyl)piperazin-1-yl)(6-(4-phenoxyphenylamino)pyridin-3-yl)methanone] | 1000 to 5000 nM |
| CC(=O)c1ccc(Oc2ccc(NC(=O)c3ccc(C(=O)N4CCC(Oc5ccc(S(=O)(=O)C6CC6)cc5)CC4)nc3)cn2)cc1 [Compound 486, N-(6-(4-acetylphenoxy)pyridin-3-yl)-6-(4-(4-(cyclopropylsulfonyl)phenoxy)piperidine-1-carbonyl)nicotinamide] | < 500 nM |
| O=C(NC1CCN(Cc2cc(F)cc(F)c2)CC1)c1ccc(C(=O)N2CCC(Oc3ccc(F)c(F)c3)CC2)cn1 [Compound 297, N-(1-(3,5-difluorobenzyl)piperidin-4-yl)-5-(4-(3,4-difluorophenoxy)piperidine-1-carbonyl)picolinamide] | < 500 nM |
| COc1ccc(C(=O)C2CCN(C(=O)c3ccc(C(=O)N[C@@H]4CCN(Cc5csc(C)n5)C[C@@H]4F)cn3)CC2)cc1 [Compound 427, N-((3S,4R)-3-fluoro-1-((2-methylthiazol-4-yl)methyl)piperidin-4-yl)-6-(4-(4-methoxybenzoyl)piperidine-1-carbonyl)nicotinamide] | 1000 to 5000 nM |
| N#Cc1ccc(CN2CCC(NC(=O)c3ccc(C(=O)N4CCC(S(=O)(=O)c5ccc(F)cc5)CC4)nc3)CC2)cc1 [Compound 471, N-(1-(4-cyanobenzyl)piperidin-4-yl)-6-(4-(4-fluorophenylsulfonyl)piperidine-1-carbonyl)nicotinamide] | 1000 to 5000 nM |
| N#Cc1ccc(CN2CCC(NC(=O)c3ccc(C(=O)N4CCN(C(=O)c5ccc(F)cc5)CC4)cn3)CC2)cc1 [Compound 76, N-(1-(4-cyanobenzyl)piperidin-4-yl)-5-(4-(4-fluorobenzoyl)piperazine-1-carbonyl)picolinamide] | < 500 nM |
| O=C(NC1CCN(C(=O)c2ccccc2)CC1)c1ccc(C(=O)N2CCN(Cc3ccc(F)cc3)CC2)cn1 [Compound 8, N-(1-(benzoyl)piperidin-4-yl)-5-(4-(4-fluorobenzyl)piperazine-1-carbonyl)picolinamide] | < 500 nM |
| COc1ccc(C(=O)C2CCN(C(=O)c3ccc(C(=O)NC4CCN(Cc5ccc(C#N)cc5)CC4(F)F)cn3)CC2)cc1 (stereo not shown) [Compound 498, N-(1-(4-cyanobenzyl)-3,3-difluoropiperidin-4-yl)-6-(4-(4-methoxybenzoyl)piperidine-1-carbonyl)nicotinamide] | < 500 nM |

| SMILES | EC50 |
| --- | --- |
| O=C(Nc1ccccc1)c1ccc(C(=O)N2CCN(Cc3ccc(F)cc3)CC2)cn1 [Compound 107, 5-(4-(4-fluorobenzyl)piperazine-1-carbonyl)-N-phenylpicolinamide] | 5000 to 10000 nM |
| COc1ccc(OC2CCN(C(=O)c3ccc(C(=O)NC4CCN(Cc5ccc(C#N)cc5)CC4)cn3)CC2)c(NS(C)(=O)=O)c1 [Compound 389, N-(1-(4-cyanobenzyl)piperidin-4-yl)-6-(4-(4-methoxy-2-(methylsulfonamido)phenoxy)piperidine-1-carbonyl)nicotinamide] | 1000 to 5000 nM |
| CC(=O)Nc1ccc(OC2CCN(C(=O)c3ccc(C(=O)NC4CCN(Cc5ccc(C#N)cc5)CC4)cn3)CC2)cc1 [Compound 366, 6-(4-(4-acetamidophenoxy)piperidine-1-carbonyl)-N-(1-(4-cyanobenzyl)piperidin-4-yl)nicotinamide] | < 500 nM |
| N#Cc1ccc(CN2CCC(NC(=O)c3ccc(NC4CCN(c5ccc(C#N)cc5)CC4)cn3)CC2)cc1 [Compound 267, N-(1-(4-cyanobenzyl)piperidin-4-yl)-5-(1-(4-cyanophenyl)piperidin-4-ylamino)picolinamide] | < 500 nM |
| COc1ccc(N2CCC(NC(=O)c3ccc(C(=O)N4CCN(Cc5ccc(F)cc5)CC4)nc3)CC2)cc1 [Compound 405, 6-(4-(4-fluorobenzyl)piperazine-1-carbonyl)-N-(1-(4-methoxyphenyl)piperidin-4-yl)nicotinamide] | < 500 nM |
| COc1ccc(C(=O)C2CCN(C(=O)c3ccc(C(=O)N(C)C4CCN(Cc5ccc(OC(F)(F)F)cc5)CC4)cn3)CC2)cc1 [Compound 483, 6-(4-(4-methoxybenzoyl)piperidine-1-carbonyl)-N-methyl-N-(1-(4-(trifluoromethoxy)benzyl)piperidin-4-yl)nicotinamide] | < 500 nM |
| COc1ccc(CN2CCC(NC(=O)c3ccc(C(=O)N4CCC(C(=O)c5ccc(F)cc5)CC4)cn3)CC2)cc1 [Compound 160, 5-(4-(4-fluorobenzoyl)piperidine-1-carbonyl)-N-(1-(4-methoxybenzyl)piperidin-4-yl)picolinamide] | < 500 nM |
| COc1ccc(CN2CCC(NC(=O)c3ccc(C(=O)N4CCC(C(=O)c5ccc(N6CCCC6)cc5)CC4)nc3)CC2)cc1 [Compound 439, N-(1-(4-methoxybenzyl)piperidin-4-yl)-6-(4-(4-(pyrrolidin-1-yl)benzoyl)piperidine-1-carbonyl)nicotinamide] | < 500 nM |
| COc1ccc(C(=O)C2CCN(C(=O)c3ccc(C(=O)Nc4ccc(S(=O)(=O)c5ccc(F)cc5)nc4)cn3)CC2)cc1 [Compound 467, N-(6-(4-fluorophenylsulfonyl)pyridin-3-yl)-6-(4-(4-methoxybenzoyl)piperidine-1-carbonyl)nicotinamide] | 1000 to 5000 nM |
| COc1ccc(O[C@H]2CC[C@@H](NC(=O)c3ccc(C(=O)N4CCC(C(=O)c5ccc(OC)cc5)CC4)cn3)CC2)cc1 [Compound 184, 5-(4-(4-methoxybenzoyl)piperidine-1-carbonyl)-N-((cis)-4-(4-methoxyphenoxy)cyclohexyl)picolinamide] | < 500 nM |
| N#Cc1ccc(OC2CN(C(=O)c3ccc(C(=O)NC4CCN(Cc5cc(F)cc(F)c5)CC4)nc3)C2)cc1 [Compound 313, 5-(3-(4-cyanophenoxy)azetidine-1-carbonyl)-N-(1-(3,5-difluorobenzyl)piperidin-4-yl)picolinamide] | < 500 nM |
| CC(=O)c1ccc(Oc2ccc(NC(=O)c3ccc(C(=O)N4CCN(c5ccc(S(C)(=O)=O)cc5)CC4)nc3)cn2)cc1 [Compound 487, N-(6-(4-acetylphenoxy)pyridin-3-yl)-6-(4-(4-(methylsulfonyl)phenyl)piperazine-1-carbonyl)nicotinamide] | 1000 to 5000 nM |
| O=C(NC1CCN(Cc2cc(F)cc(F)c2)CC1)c1ccc(C(=O)N2CC[C@H](Oc3ccc(F)cc3)C2)cn1 [Compound 292, N-(1-(3,5-difluorobenzyl)piperidin-4-yl)-5-((S)-3-(4-fluorophenoxy)pyrrolidine-1-carbonyl)picolinamide] | < 500 nM |
| N#Cc1ccc(OC2CCN(C(=O)c3ccc(C(=O)Nc4ccc(Oc5ccc(F)cc5)nc4)cn3)CC2)cc1 [Compound 326, 6-(4-(4-cyanophenoxy)piperidine-1-carbonyl)-N-(6-(4-fluorophenoxy)pyridin-3-yl)nicotinamide] | < 500 nM |
| O=C(Nc1ccc(Oc2ccc(F)cc2)nc1)c1cnc(C(=O)N2CCC(C(=O)c3ccc(F)cc3F)CC2)cn1 [Compound 206, 5-(4-(2,4-difluorobenzoyl)piperidine-1-carbonyl)-N-(6-(4-fluorophenoxy)pyridin-3-yl)pyrazine-2-carboxamide] | < 500 nM |
| O=C(NC1CCN(Cc2ccccc2)CC1)c1ccc(Nc2cccc(Oc3ccccc3)c2)cn1 [Compound 112, N-(1-benzylpiperidin-4-yl)-5-(3-phenoxyphenylamino) picolinamide] | 1000 to 5000 nM |
| N#Cc1ccc(CN2CCC(NC(=O)c3ccc(C(=O)N4CCN(S(=O)(=O)c5ccc(F)cc5)CC4)cn3)CC2)cc1 [Compound 78, N-(1-(4-cyanobenzyl)piperidin-4-yl)-5-(4-(4-fluorophenylsulfonyl)piperazine-1-carbonyl)picolinamide] | < 500 nM |

From patent US9663496B2, “AMPK-activating heterocyclic compounds and methods for using the same” (Rigel Pharmaceuticals, Inc., priority 2010, dated 2017)
